# Measurements published in patent publication US20240277637A1, “CAPSAICIN DERIVATIVES IN THE TREATMENT OF IDIOPATHIC PULMONARY FIBROSIS” (aXichem AB, priority 2021, published 2024).
# “Also recorded” adds a separate entry of the source.
# How the values were obtained:
# [1] = tested on: human bronchial epithelial cells; experiment: Clonogenic cell survival assay, bronchial epithelial cells with PDGF-AB (Example 4); format: cell-based; details: 10 ng/ml PDGF-AB, 14 days; for effect on clonogenic survival / PDGF inhibition (words): 0-10 μM
# Experimental: (§1) Primary isolated human bronchial epithelial cells (NHBE) were used in this assay sourced from the American Tissue Culture Collection (Normal, Human (ATCC® BEAS-2B™)) and were cultured up to passage 6. […].
# The effects of Phenylcapsaicin (2) on clonogenic survival of bronchial epithelial cells, by plating the cells with increasing numbers (102 to 5×104) in 25 cm^2 flasks were investigated. SU9518* and Phenylcapsaicin were used as positive controls. The cells were incubated with 0-10 μM (3% DMSO aqueous) of Phenylcapsaicin, SU9518, and compounds 8-12 separately in the presence of 10 ng/ml PDGF-AB (Sigma Aldrich). The flasks were returned to the incubator for 14 days, after which they were stained with crystal violet (Sigma Aldrich). The colonies were counted and the surviving percentage was determined for clonogenic survival after correcting for plating efficiency. The synthetic analogs were all calculated at 100% purity for molar concentrations.
# [2] = tested on: human bronchial epithelial cells; experiment: Clonogenic cell survival assay, bronchial epithelial cells with PDGF-AB (Example 3); format: cell-based; details: 10 ng/ml PDGF-AB, 14 days; for effect on clonogenic survival / PDGF inhibition (words): 0-10 μM
# Experimental: as §1
# A clonogenic cell survival assay determines the ability of a cell to proliferate indefinitely. Cells were plated with increasing numbers (102 to 5×10^4) in 25 cm^2 flasks. SU9518, SU9518, a known inhibitor PDGF that has shown the ability to reduce radiation-induced fibroblast and endothelial cell activation, and phenylcapsaicin were used as positive controls. The cells were incubated with 0-10 μM (3% DMSO aqueous) of phenylcapsaicin, SU9518, and compounds 1 and 3-7 separately in the presence of 10 ng/ml PDGF-AB (Sigma Aldrich). The flasks were returned to the incubator for 14 days, after which they were stained with crystal violet (Sigma Aldrich). The colonies were counted and the surviving percentage was determined for clonogenic survival after correcting for plating efficiency.
Structure (SMILES),Clonogenic Survival Assay (percent) ([1]; 0.10 uM),Clonogenic Survival Assay (percent) ([1]; 0.50 uM),Clonogenic Survival Assay (percent) ([1]; 1.00 uM),Clonogenic Survival Assay (percent) ([1]; 2.00 uM),Clonogenic Survival Assay (percent) ([1]; 5.00 uM),Clonogenic Survival Assay (percent) ([1]; 10.00 uM),effect on clonogenic survival / PDGF inhibition (words) [1],effect on clonogenic survival / PDGF inhibition (words) [2],Clonogenic Survival Assay (percent) ([2]; 0.10 μM),Clonogenic Survival Assay (percent) ([2]; 0.50 μM),Clonogenic Survival Assay (percent) ([2]; 1.00 μM),Clonogenic Survival Assay (percent) ([2]; 2.00 μM),Clonogenic Survival Assay (percent) ([2]; 5.00 μM),Clonogenic Survival Assay (percent) ([2]; 10.00 μM),also measured
"COc1cc(CNC(=O)CCCCC#Cc2ccc([N+](=O)[O-])cc2)ccc1O [Compound 10, N-[(4-Hydroxy-3-methoxyphenyl)methyl]-7-(p-nitrophenyl)-6-heptynamide]",73%,55%,51%,40%,41%,39%,,,,,,,,,
"COc1cc(CNC(=O)CCCC/C=C/C(C)C)ccc1O [Compound 1, capsaicin]",97%,98%,95%,96%,96%,95%,no inhibition of PDGF was observed,did not show any PDGF inhibition,97%,97%,95%,96%,96%,95%,"effect on clonogenic survival / PDGF inhibition (words) ([2]; listed as capsaicin): no inhibition of PDGF was observed; Clonogenic Survival Assay (percent) ([2]; 10.00 μM, listed as capsaicin): 95%"
COc1cc(CNC(=O)CCCCC#CC2CCCCC2)ccc1O [Compound 3],,,,,,,,some modest activity,91%,83%,77%,74%,71%,73%,"effect on clonogenic survival / PDGF inhibition (words) ([2]; listed as compound 3): PDGF inhibition activity dropped significantly; Clonogenic Survival Assay (percent) ([2]; 10.00 μM, listed as compound 3): 73%"
"COc1ccc(C#CCCCCC(=O)NCc2ccc(O)c(OC)c2)cc1 [Compound 11, N-[(4-Hydroxy-3-methoxyphenyl)methyl]-7-(p-methoxyphenyl)-6-heptynamide]",72%,57%,51%,33%,28%,21%,higher reduction than the lead phenylcapsaicin,,,,,,,,effect on clonogenic survival / PDGF inhibition (words) ([1]; listed as compound 11): further improved
"COc1cc(CNC(=O)CCCCC#Cc2ccccc2)ccc1OC(C)=O [Compound 5, 2-Methoxy-4-[(6-phenyl-5-hexynylcarbonylamino)methyl]phenyl acetate]",,,,,,,,greater PDGF inhibition than both the parent PheCap (2) and the positive control SU9518; also recorded: significant improvement in PDGF inhibiting activity,78%,60%,45%,32%,30%,20%,"effect on clonogenic survival / PDGF inhibition (words) ([2]; listed as compound 5): significant improvement in PDGF inhibiting activity; Clonogenic Survival Assay (percent) ([2]; 10.00 μM, listed as compound 5): 20%"
COc1cc(CNC(=O)CCCCC#CC2CCCCC2)ccc1OC(C)=O [Compound 6],,,,,,,,some modest activity,89%,82%,76%,64%,69%,61%,effect on clonogenic survival / PDGF inhibition (words) ([2]; listed as compound 6): gave better results than compound 3
"COc1cc(CNC(=O)CCCCC#Cc2cccc3ccccc23)ccc1O [Compound 12, N-[(4-Hydroxy-3-methoxyphenyl)methyl]-7-(1-naphthyl)-6-heptynamide]",81%,79%,61%,53%,48%,32%,,,,,,,,,
COc1cc(CNC(=O)CCCCC#CC(C)(C)C)ccc1O [Compound 4],,,,,,,,did not show any PDGF inhibition,97%,95%,97%,96%,91%,91%,"effect on clonogenic survival / PDGF inhibition (words) ([2]; listed as compound 4): completely eliminated the PDGF inhibiting activity; Clonogenic Survival Assay (percent) ([2]; 10.00 μM, listed as compound 4): 91%"
"COc1cc(CNC(=O)CCCCCCc2ccccc2)ccc1O [Compound 8, N-[(4-Hydroxy-3-methoxyphenyl)methyl]7-phenylheptanamide]",97%,100%,97%,95%,96%,97%,did not show any reduction in clonogenic cell survival,,,,,,,,
COc1cc(CNC(=O)CCCCC#CC(C)(C)C)ccc1OC(C)=O [Compound 7],,,,,,,,did not show any PDGF inhibition,99%,96%,96%,91%,94%,93%,effect on clonogenic survival / PDGF inhibition (words) ([2]; listed as compound 7): could not mediate the negative effects of the tert-butyl group
C#CCCCCC(=O)NCc1ccc(O)c(OC)c1 [Compound 9],100%,97%,99%,96%,96%,99%,did not show any reduction in clonogenic cell survival,,,,,,,,
